Assay results from ChEMBL document CHEMBL5214986, “Discovery of selective covalent cathepsin K inhibitors containing novel 4-cyanopyrimidine warhead based on quantum chemical calculations and binding mode analysis” (Bioorg Med Chem, 2022).
Active and inactive are the calls of the source. The rule behind the calls is not given here.

Assays:
[1] = target: T1, Cathepsin K (Homo sapiens) (UniProt P43235); assay: Inhibition of Cathepsin K (unknown origin) assessed as inhibition of AFC release at 1 uM using sequence LR labelled with AFC as substrate by fluorescence based analysis
T1 sequence (whole entry): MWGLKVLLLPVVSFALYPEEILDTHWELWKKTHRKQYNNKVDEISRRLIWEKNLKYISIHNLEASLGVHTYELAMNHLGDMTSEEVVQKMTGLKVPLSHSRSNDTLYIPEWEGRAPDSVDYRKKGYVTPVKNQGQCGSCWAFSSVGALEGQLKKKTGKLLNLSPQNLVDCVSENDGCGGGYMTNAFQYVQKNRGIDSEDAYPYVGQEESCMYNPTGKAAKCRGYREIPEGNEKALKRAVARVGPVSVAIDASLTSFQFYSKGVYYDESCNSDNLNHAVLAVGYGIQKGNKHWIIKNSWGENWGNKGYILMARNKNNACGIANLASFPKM

[2] = target: T1, Cathepsin K (Homo sapiens); assay: Inhibition of Cathepsin K (unknown origin) assessed as inhibition of AFC release at 10 uM using sequence LR labelled with AFC as substrate by fluorescence based analysis
[3] = target: Cathepsin (S and K) (Homo sapiens) (UniProt P25774+P43235); assay: Selectivity index, ratio of IC50 for Cathepsin S (unknown origin) to IC50 for Cathepsin K (unknown origin) by fluorescence based analysis; assay type: protein assay
Cathepsin S = Cathepsin S (Homo sapiens, UniProt P25774); assay: Inhibition of Cathepsin S (unknown origin) assessed as inhibition of AFC release using sequence VVR labelled with AFC as substrate by fluorescence based analysis
Cathepsin B = Cathepsin B (Homo sapiens, UniProt P07858); assay: Inhibition of Cathepsin B (unknown origin) assessed as inhibition of AFC release using sequence RR labelled with AFC as substrate by fluorescence based analysis
[4] = target: T1, Cathepsin K (Homo sapiens); assay: Reversible inhibition of Cathepsin K (unknown origin) assessed as inhibition of AFC release using sequence LR labelled with AFC as substrate preincubated with enzyme for 10 to 60 mins followed by substrate addition by fluorescence based analysis
Cathepsin K = target: T2, Cathepsin K (Homo sapiens, UniProt P43235); assay: Inhibition of Cathepsin K (unknown origin) assessed as inhibition of AFC release using sequence LR labelled with AFC as substrate by fluorescence based analysis
T2 sequence (P43235 whole entry): T1 sequence (whole entry)

[5] = target: Cathepsin (B and K) (Homo sapiens) (UniProt P43235+P07858); assay: Selectivity index, ratio of IC50 for Cathepsin B (unknown origin) to IC50 for Cathepsin K (unknown origin) by fluorescence based analysis; assay type: protein assay

Sequence of Cathepsin S (P25774 whole entry): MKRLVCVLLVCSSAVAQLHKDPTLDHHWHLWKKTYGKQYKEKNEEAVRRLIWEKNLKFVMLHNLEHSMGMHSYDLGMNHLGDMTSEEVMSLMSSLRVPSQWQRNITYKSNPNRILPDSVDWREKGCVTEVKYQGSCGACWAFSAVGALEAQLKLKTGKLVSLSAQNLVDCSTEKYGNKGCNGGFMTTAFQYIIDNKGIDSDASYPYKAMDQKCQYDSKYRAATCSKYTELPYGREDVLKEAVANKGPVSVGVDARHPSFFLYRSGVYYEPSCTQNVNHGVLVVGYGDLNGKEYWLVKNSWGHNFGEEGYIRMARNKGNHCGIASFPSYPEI
Sequence of Cathepsin (S and K) (Homo sapiens) (P25774 whole entry, looked up, one chain of several): as the sequence (P25774 whole entry) above

| SMILES | inhibition [1] | inhibition [2] | Ratio IC50 [3] | IC50 (Cathepsin S) | IC50 (Cathepsin B) | inhibition [4] | IC50 (Cathepsin K) | Ratio IC50 [5] |
| --- | --- | --- | --- | --- | --- | --- | --- | --- |
| CC(C)(C)CN(Cc1cccc(-c2ccccc2)c1)c1nccc(C#N)n1 | 33.6% | 45.5% | – | – | – | – | – | – |
| CC(C)(C)CN(Cc1ccc2ccccc2n1)c1nccc(C#N)n1 | 46.9% | 87.4% | – | – | – | – | – | – |
| CC(C)(C)CN(Cc1ccccc1)c1nccc(C#N)n1 | -1.05% | 82.7% | – | – | – | – | – | – |
| Cc1ncc(CN(CC(C)(C)C)c2nccc(C#N)n2)s1 | 52.6% | 93.7% | – | – | – | – | – | – |
| N#Cc1ccnc(N(Cc2ccc(Br)cc2)C2CCCCC2)n1 | 16.8% | 42.8% | – | – | – | – | – | – |
| CN1CCN(c2ccc(CN(CC(C)(C)C)c3nccc(C#N)n3)cc2)CC1 | 96.7% | 99.1% | > 810 | > 50000 nM | > 100000 nM | Active | 61.9 nM | > 1620 |
| N#Cc1ccnc(N(Cc2ccc(Br)cc2)CC2CCCCC2)n1 | 47.4% | 73.2% | – | – | – | – | – | – |
| CC(C)(C)CN(Cc1cc(Br)cs1)c1nccc(C#N)n1 | 43.9% | 75.8% | – | – | – | – | – | – |
| CC(C)(C)CN(Cc1ccc(Br)cn1)c1nccc(C#N)n1 | – | 32.2% | – | – | – | – | – | – |
| CC(C)(C)CN(Cc1ccc(Cl)cc1)c1nccc(C#N)n1 | 61.3% | 88.3% | – | – | – | – | – | – |
| CC(C)(C)CN(Cc1ccc2ccccc2c1)c1nccc(C#N)n1 | 86.5% | 89.7% | – | > 500000 nM | > 500000 nM | – | 356 nM | – |
| CC(C)(C)CN(Cc1ccc2cccnc2c1)c1nccc(C#N)n1 | 48% | 93.4% | – | – | – | – | – | – |
| CC(C)(C)CN(Cc1ccc(Br)cc1)c1nccc(C#N)n1 | 79.8% | 91.3% | – | – | – | – | 974 nM | – |
| CC(C)(C)CN(Cc1ccc(-c2ccccc2)cc1)c1nccc(C#N)n1 | 77.5% | 83.3% | – | > 500000 nM | > 500000 nM | – | 235 nM | – |
| CC(C)(F)C[C@H](N[C@@H](c1ccc(-c2ccc(S(C)(=O)=O)cc2)cc1)C(F)(F)F)C(=O)NC1(C#N)CC1 [ODANACATIB] | 96.5% | 100% | < 300 | < 500 nM | < 2000 nM | – | 1.7 nM | < 1180 |
| CC(C)(C)CN(Cc1ccc(F)cc1)c1nccc(C#N)n1 | 56.2% | 90.6% | – | – | – | – | – | – |
